pIC50, pKd: −log10 of the molar value. Where two headings read alike, the source gives them in different places.
Legend:
[1] = target: streptavidin (Streptomyces avidinii, UniProt P22629); assay: biochemical; assay type: binding
Method: (§1) LNA5 and LNA3 conjugates were hybridized by mixing 25 µL of LNA5 (2 µM) and 25 µL of LNA3 (2 µM) conjugates in water and heating to 70 °C for 5-10 min. After cooling down the solution to room temperature, 950 µL of 1x PBS was added to the LNA solution. The hybridized LNA conjugates were then tested via fluorescence polarization.
If the LNA conjugates were clicked together, they were diluted to 1 µM, 50 µL of a clicked conjugate was diluted with 950 µL 1x PBS and tested by fluorescence polarization.
(§2) Separately, a 16-point serial dilution of protein was performed in PBS in PCR tubes. 4 µL of the 50 nM conjugate was mixed with 4 µL of each protein dilution in black 384-well plates to a final volume of 8 µL. The plate was incubated for 30 min in the dark and centrifuged briefly to remove bubbles. Fluorescence anisotropy was measured at 535 nm. Data was fitted using Prism 10. Raw data from experimental FP measurements can be found in Supplementary Information, section 7.1.
7.1. Fluorescence Polarization
as §1, with “mQ” for “water”, “polarization experiment.” for “polarization.”
If the LNA conjugates were clicked together, they were diluted to 1 µM, 50 µL of a clicked conjugate could then be taken, diluted with 950 µL 1x PBS and tested via fluorescence […]
All other off-DNA fluoresceinated compounds were diluted to 50 nM in 1xPBS containing 5% […]
as §2, with “Data was obtained and fitted using” for “Data was fitted using”, “Prism 10.” for “Prism 10. Raw data from experimental FP measurements can be found in Supplementary Information, section 7.1.”

[2] = target: T1, placental alkaline phosphatase (PLAP) (Homo sapiens, UniProt P05187); assay: PLAP inhibition assay (pNPP substrate); assay type: biochemical; details: off-DNA
T1 construct: AviTag (biotinylated in vitro by BirA); 6xHis-tag; made in house; host or cells: Chinese hamster ovary (CHO) cells
T1 sequence (P05187 23-506 limits assumed): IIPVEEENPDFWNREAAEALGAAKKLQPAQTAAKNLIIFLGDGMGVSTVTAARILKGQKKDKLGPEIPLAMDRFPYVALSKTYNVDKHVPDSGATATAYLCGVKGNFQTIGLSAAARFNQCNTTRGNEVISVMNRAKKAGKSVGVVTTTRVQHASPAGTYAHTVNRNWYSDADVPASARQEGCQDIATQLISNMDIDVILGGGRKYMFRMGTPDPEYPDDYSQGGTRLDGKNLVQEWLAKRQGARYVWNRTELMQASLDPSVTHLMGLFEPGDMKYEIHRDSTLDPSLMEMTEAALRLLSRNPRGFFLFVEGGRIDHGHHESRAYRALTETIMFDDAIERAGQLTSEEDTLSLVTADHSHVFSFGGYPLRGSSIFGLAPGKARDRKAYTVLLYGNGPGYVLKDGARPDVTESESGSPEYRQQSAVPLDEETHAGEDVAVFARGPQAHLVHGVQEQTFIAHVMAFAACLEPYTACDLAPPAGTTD
Method: For the PLAP inhibition assay, 500 µM of inhibitor was used for a 16-point serial dilution in 10% DMSO/activation buffer in PCR tubes. Separately, a 12.5 nM solution of PLAP and a 4.5 mM solution of p-nitrophenylphosphate (pNPP) were prepared in activation buffer (see below). 8 µL of each inhibitor dilution was mixed with 16 µL of enzyme solution and 16 µL of pNPP solution and gently mixed. The assay was allowed to develop in the dark for 30 min (activation buffer pH10: 150 mM diethanolamine, 1 mM MgCl2, 60 mM ZnCl2 in water, pH 9.8) or 1 hour (activation buffer pH9: 150 mM Tris, 1 mM MgCl2, 60 mM ZnCl2 in water, pH 9.0). 50 µL of 2 M NaOH was then added to quench the reaction. Readout was performed to detect 405 nm vs 620 nm absorption. Data was fitted using Prism 10. Raw data from PLAP measurements can be found in Supplementary Information, section 7.2.2.
Human alpha-thrombin was obtained from Prolytix (Haematologic Technologies) - BioConnect Website and used in FP and inhibition assays. Biotinylated thrombin used for selections was obtained from Sigma Aldrich.
The recombinant human placental alkaline phosphatase (hPLAP) labelled with AviTag™ and 6xHis-tag was produced in Chinese hamster ovary (CHO) cells and was purified by Ni-NTA affinity chromatography and size-exclusion chromatography. The in-vitro biotinylation of the protein is mediated by BirA protein system. “Early-fraction” is the final material used for fluorescence polarization and inhibition experiments.
Figure S32: Quality characterization of recombinant hPLAP. A. The size exclusion chromatogram of purifying recombinant hPLAP expressed in CHO cells after Ni-NTA affinity chromatography purification and biotinylation. […] The absorbances at 450nm were measured with/without the presence of hPLAP and/or human PLAP antibody. […]
Protocol was adapted from Habeshian et al. 12. […] Fluorescence (excitation at 360 nm, emission at 465 nm) was measured every 3 min for 30 min. […] Data was measured in triplicate. […]
and gently mixed. […] Readout was performed to detect 405 nm vs 620 nm absorption. […]

[3] = pH not printed with the values, pH 9 implied by b30, mean of n=3, read-out: IC50

Chain of streptavidin (P22629 25-183): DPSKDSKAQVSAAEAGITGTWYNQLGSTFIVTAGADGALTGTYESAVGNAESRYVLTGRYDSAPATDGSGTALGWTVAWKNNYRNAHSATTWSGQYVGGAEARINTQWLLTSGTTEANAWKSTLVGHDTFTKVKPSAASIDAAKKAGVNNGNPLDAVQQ

| Compound | pKd [1] | pIC50 ([2]; pH 10 (activation buffer pH 9.8), read-out: IC50 (determined fit)) | pIC50 [2, 3] |
| --- | --- | --- | --- |
| CC(C)C[C@H](C(=O)N1Cc2cc(C(=O)N[C@@H](CSCC(N)=O)C(=O)NCCCCCC(=O)N[C@@H](CCCCNC(=O)c3ccc4c(c3)C(=O)OC43c4ccc(O)cc4Oc4cc(O)ccc43)C(N)=O)sc2C1)n1cc(CN2CCC[C@H]2C(=O)N[C@H](CC2CCCCC2)C(=O)N[C@@H](CSCC(N)=O)C(N)=O)nn1 [Compound 7-L0] | 6.76 |  |  |
| CC(C)C[C@@H]1C(=O)N2Cc3cc(sc3C2)C(=O)N[C@H](C(=O)NCCCCCC(=O)N[C@@H](CCCCNC(=O)c2ccc3c(c2)C(=O)OC32c3ccc(O)cc3Oc3cc(O)ccc32)C(N)=O)CSCCS(=O)(=O)CS(=O)(=O)CCSC[C@@H](C(N)=O)NC(=O)[C@@H](CC2CCCCC2)NC(=O)[C@@H]2CCCN2Cc2cn1nn2 [Compound 7-L1] | < 5.30 |  |  |
| CC(C)C[C@@H]1C(=O)N2Cc3cc(sc3C2)C(=O)N[C@H](C(=O)NCCCCCC(=O)N[C@@H](CCCCNC(=O)c2ccc3c(c2)C(=O)OC32c3ccc(O)cc3Oc3cc(O)ccc32)C(N)=O)CSCc2ccc(cc2)CSC[C@@H](C(N)=O)NC(=O)[C@@H](CC2CCCCC2)NC(=O)[C@@H]2CCCN2Cc2cn1nn2 [Compound 7-L2] | < 5.30 |  |  |
| CC(C)C[C@@H]1C(=O)N2Cc3cc(sc3C2)C(=O)N[C@H](C(=O)NCCCCCC(=O)N[C@@H](CCCCNC(=O)c2ccc3c(c2)C(=O)OC32c3ccc(O)cc3Oc3cc(O)ccc32)C(N)=O)CSCc2cccc(c2)CSC[C@@H](C(N)=O)NC(=O)[C@@H](CC2CCCCC2)NC(=O)[C@@H]2CCCN2Cc2cn1nn2 [Compound 7-L3] | < 5.30 |  |  |
| CC(C)C[C@@H]1C(=O)N2Cc3cc(sc3C2)C(=O)N[C@H](C(=O)NCCCCCC(=O)N[C@@H](CCCCNC(=O)c2ccc3c(c2)C(=O)OC32c3ccc(O)cc3Oc3cc(O)ccc32)C(N)=O)CSC/C=C/CSC[C@@H](C(N)=O)NC(=O)[C@@H](CC2CCCCC2)NC(=O)[C@@H]2CCCN2Cc2cn1nn2 [Compound 7-L4] | < 5.30 |  |  |
| CC(C)C[C@@H]1C(=O)N2Cc3cc(sc3C2)C(=O)N[C@H](C(=O)NCCCCCC(=O)N[C@@H](CCCCNC(=O)c2ccc3c(c2)C(=O)OC32c3ccc(O)cc3Oc3cc(O)ccc32)C(N)=O)CSC/C=C\CSC[C@@H](C(N)=O)NC(=O)[C@@H](CC2CCCCC2)NC(=O)[C@@H]2CCCN2Cc2cn1nn2 [Compound 7-L5] | < 5.30 |  |  |
| NC(=O)CSC[C@H](NC(=O)[C@@H](CC1CCCCC1)NC(=O)[C@@H]1CCCN1Cc1cn([C@H](CC2CCC2)C(=O)N2Cc3cc(C(=O)N[C@@H](CSCC(N)=O)C(=O)NCCCCCC(=O)N[C@@H](CCCCNC(=O)c4ccc5c(c4)C(=O)OC54c5ccc(O)cc5Oc5cc(O)ccc54)C(N)=O)sc3C2)nn1)C(N)=O [Compound 8-L0] | 6.93 |  |  |
| NC(=O)CSC[C@H](NC(=O)C[C@H](Cc1ccccc1Cl)NC(=O)[C@@H](N)Cc1ccccc1Cl)C(=O)NCCCCCC(=O)N[C@@H](CCCCNC(=S)Nc1ccc2c(c1)C(=O)OC21c2ccc(O)cc2Oc2cc(O)ccc21)C(N)=O [Compound 21] |  | 4.68 | 5.60 |
| C#CCN1CCC[C@H]1C(=O)N[C@H](CC(=O)N[C@@H](CSC1CC(=O)N(CCN2C(=O)CC(SC[C@H](NC(=O)C[C@H](Cc3ccccc3Cl)NC(=O)[C@@H](N)Cc3ccccc3Cl)C(=O)NCCCCCC(=O)N[C@@H](CCCCNC(=S)Nc3ccc4c(c3)C(=O)OC43c4ccc(O)cc4Oc4cc(O)ccc43)C(N)=O)C2=O)C1=O)C(N)=O)Cc1ccccc1Cl (stereo partly shown) [Compound 22] |  |  | 5.84 |

— paper PMC11972359, “Flexibility-tuning of dual-display DNA-encoded chemical libraries facilitates cyclic peptide ligand discovery” (Nature Communications, 2025)
